Earlier results on one molecule are cited in patent US20200093858A1, “VAGINAL BIOADHESIVE BORIC ACID FORMULATION AND ITS PREPARATION METHOD” (Halo Science LLC, priority 2015, published 2020).

Like-named read-outs stand apart in the source and are kept apart here.

Data set [1] deals with common fungi or bacteria. The settings on record: in urine.
Data set [2] relates to C. albicans. The settings on record: 2×10^6 per mL of C. albicans, in vitro.
For data set [3], the system named is vulvovaginal candidiasis.
Data set [4] concerns T. glabrata. The settings on record: refractory T. glabrata vaginitis.
For data set [5] the following is noted: 600 mg per day, therapeutic course of two weeks.
For data set [6], the system named is recurrent bacterial vaginosis. As to conditions: for cure rate / cumulative cure rate: boric acid in addition to nitroimidazole.

On to `OB(O)O` [boric acid], for which, in data set [1], the “boric acid concentration that could suppress almost all common fungi or bacteria” value is 10 to 20 mg/mL. The “boric acid concentration that inhibited proliferation of C. albicans” value in data set [2] is listed as 4%. The cure rate is reported as over 90% in data set [3] (boric acid treatment of vulvovaginal candidiasis), 88% in data set [6] (week 7) and 92% in data set [6] (week 12). For the same molecule, the “efficacy compared with conazoles” value in data set [3] (treatment for 14 days) is “equivalent to conazoles”. For the same molecule, the Clinical efficacy in data set [4] is recorded as at most 81%. In addition, the mycological eradication rate in data set [4] is at most 77%. Besides, the adverse reactions entry was “did not cause adverse reactions” in data set [5] and “No adverse reactions were observed” in data set [6] (in vivo). The cumulative cure rate is reported as 78% in data set [6] (week 16) and 65% in data set [6] (week 28).
